Consider 18 compounds from patent US20110224204A1, “DI-SUBSTITUTED PHENYL COMPOUNDS” (priority 2008, published 2011).

Test system in one series: not given
Test: not given
The note with it: rats; cited from earlier work.
`COc1ccc(Cc2nccc3cc(OC)c(OC)cc23)cc1OC` [papaverine]: the apomorphine induced stereotypies result is on record as “reduces”, the haloperidol induced catalepsy result is given as “increases” and the “rat brain dopamine levels” value is given as “reduces”.

In a further series the target is Human PDE10A1 (Homo sapiens, UniProt Q9Y233). The series is described as follows: hPDE10A1 Enzyme Inhibition. The format is biochemical. As to conditions: [3H]-cAMP substrate; read-out: hPDE10A1 IC50 Band. Here is the method: hPDE10A1 Enzyme Activity: 50 μl samples of serially diluted Human PDE10A1 enzyme were incubated with 50 μl of [^3H]-cAMP for 20 minutes (at 37° C.). Reactions were carried out in Greiner 96 deep well 1 ml master-block. The enzyme was diluted in 20 mM Tris HCl pH7.4 and [^3H]-cAMP was diluted in 10 mM MgCl2, 40 mM Tris.HCl pH 7.4. The reaction was terminated by denaturing the PDE enzyme (at 70° C.) after which [^3H]-5′-AMP was converted to [^3H]-adenosine by adding 25 μl snake venom nucleotidase and incubating for 10 minutes (at 37° C.). Adenosine, being neutral, was separated from charged cAMP or AMP by the addition of 200 μl Dowex resin. Samples were shaken for 20 minutes then centrifuged for 3 minutes at 2,500 r.p.m. 50 μl of supernatant was removed and added to 200 μl of MicroScint-20 in white plates (Greiner 96-well Optiplate) and shaken for 30 minutes before reading on Perkin Elmer TopCount Scintillation Counter.
Chain of Human PDE10A1 (Q9Y233 1-779 isoform Q9Y233-1): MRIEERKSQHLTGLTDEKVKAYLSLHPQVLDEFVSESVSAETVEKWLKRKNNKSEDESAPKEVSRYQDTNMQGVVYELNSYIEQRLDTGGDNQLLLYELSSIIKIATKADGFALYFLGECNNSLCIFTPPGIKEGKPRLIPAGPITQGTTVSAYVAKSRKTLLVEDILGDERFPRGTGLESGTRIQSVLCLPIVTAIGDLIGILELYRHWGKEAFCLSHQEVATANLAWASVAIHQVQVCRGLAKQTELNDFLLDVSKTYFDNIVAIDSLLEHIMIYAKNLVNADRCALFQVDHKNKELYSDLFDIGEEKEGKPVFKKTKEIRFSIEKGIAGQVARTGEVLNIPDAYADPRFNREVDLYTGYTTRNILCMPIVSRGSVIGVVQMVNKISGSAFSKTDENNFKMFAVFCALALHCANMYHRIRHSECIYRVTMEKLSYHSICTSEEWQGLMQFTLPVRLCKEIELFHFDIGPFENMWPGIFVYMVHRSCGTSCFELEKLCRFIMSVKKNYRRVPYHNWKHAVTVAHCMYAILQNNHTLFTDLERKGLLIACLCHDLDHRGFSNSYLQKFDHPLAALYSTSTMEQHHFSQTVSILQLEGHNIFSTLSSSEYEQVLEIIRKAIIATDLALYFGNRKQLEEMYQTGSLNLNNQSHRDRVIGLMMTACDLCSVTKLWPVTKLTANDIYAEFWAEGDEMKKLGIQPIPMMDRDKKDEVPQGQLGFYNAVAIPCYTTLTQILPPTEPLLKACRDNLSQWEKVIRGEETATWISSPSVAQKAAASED
hPDE10A1 Enzyme Inhibition: To check inhibition profile 11 μl of serially diluted inhibitor was added to 50 μl of [^3H]-cAMP and 50 ul of diluted Human PDE10A1 and assay was carried out as in the enzyme activity assay. Data was analysed using Prism software (GraphPad Inc).
As to `c1cc(-c2ccncc2)c(-c2ccc(OCc3ccc4ccccc4n3)cc2)c(N2CCOCC2)c1` [Example 1873, 4-(6-(pyridin-4-yl)-4′-(quinolin-2-ylmethoxy)biphenyl-2-yl)morpholine], the IC50 is greater than 50 nM.

Consider `CN(C)Cc1cccc(-c2ccncc2)c1-c1ccc(OCc2ccc3ccccc3n2)cc1` [Example 1874, N,N-dimethyl-1-(6-(pyridin-4-yl)-4′-(quinolin-2-ylmethoxy)biphenyl-2-yl)methanamine], for which the IC50 is greater than 50 nM.

On to `CCc1ccccc1-c1ccc(OCc2ccc3ccccc3n2)cc1` [Example 1875, 2-((2′-ethylbiphenyl-4-yloxy)methyl)quinoline], for which the IC50 was greater than 50 nM.

For `Clc1ccc(-c2ccc(OCc3ccc4ccccc4n3)cc2)c(-c2ccncc2)c1` [Example 1876, 2-((4′-Chloro-2′-(pyridin-4-yl)biphenyl-4-yloxy)methyl)quinoline], the IC50 was greater than 50 nM.

Take `c1ccc(C2CCCCC2)c(-c2ccc(OCc3ccc4ccccc4n3)cc2)c1` [Example 1877, 2-((2′-cyclohexylbiphenyl-4-yloxy)methyl)quinoline]: the IC50 was greater than 50 nM.

As to `CCc1ccc(COc2ccc(-c3ccccc3-c3ccncc3)cc2)nc1` [Example 1878, 5-ethyl-2-((2′-(pyridin-4-yl)biphenyl-4-yloxy)methyl)pyridine], the IC50 was greater than 50 nM.

With `CC(C)Oc1ccccc1-c1ccc(OCc2ccc3ccccc3n2)cc1` [Example 1879, 2-((2′-isopropoxybiphenyl-4-yloxy)methyl)quinoline], the IC50 is greater than 50 nM.

For `Cc1cc(-c2ccncc2)c(-c2ccc(OCc3ccc4ccccc4n3)cc2)cc1C` [Example 1880, 2-((4′,5′-dimethyl-2′-(pyridin-4-yl)biphenyl-4-yloxy)methyl)quinoline], the concentration for half-maximal inhibition (IC50) was greater than 50 nM.

`Nc1cccc(-c2ccncc2)c1-c1ccc(OCc2ccc3ccccc3n2)cc1` [Example 1881, 6-Pyridin-4-yl-4′-(quinolin-2-ylmethoxy)-biphenyl-2-ylamine]: the IC50 was greater than 50 nM.

With `Cc1cccnc1COc1ccc(-c2ccccc2-c2ccncc2)cc1` [Example 1882, 3-methyl-2-((2′-(pyridin-4-yl)biphenyl-4-yloxy)methyl)pyridine], the IC50 was greater than 50 nM.

In the case of `COc1ccccc1-c1ccc(OCc2ccc3ccccc3n2)cc1` [Example 1883, 2-((2′-methoxybiphenyl-4-yloxy)methyl)quinoline], the IC50 was greater than 50 nM.

For `Cc1cccc(COc2ccc(-c3ccccc3-c3ccncc3)cc2)n1` [Example 1884, 2-methyl-6-((2′-(pyridin-4-yl)biphenyl-4-yloxy)methyl)pyridine], the IC50 is greater than 50 nM.

With `N#Cc1ccc(-c2ccc(OCc3ccc4ccccc4n3)cc2)c(-c2ccncc2)c1` [Example 1885, 2-(Pyridin-4-yl)-4′-(quinolin-2-ylmethoxy)biphenyl-4-carbonitrile], the IC50 was greater than 50 nM.

Turning to `Cc1cccc(-c2ccc(OCc3ccc4ccccc4n3)cc2)c1-c1ccncc1` [Example 1886, 2-(3′-Methyl-2′-pyridin-4-yl-biphenyl-4-yloxymethyl)-quinoline], the IC50 was greater than 50 nM.

In the case of `Cc1cnc(COc2ccc(-c3ccccc3-c3ccncc3)cc2)c(C)c1` [Example 1887, 3,5-dimethyl-2-((2′-(pyridin-4-yl)biphenyl-4-yloxy)methyl)pyridine], the IC50 was no more than 50 nM.

With `Fc1cccc(-c2ccc(OCc3ccc4ccccc4n3)cc2)c1-c1ccncc1` [Example 1946, 2-(3′-Fluoro-2′-pyridin-4-ylbiphenyl-4-yloxymethyl)-quinoline], the IC50 was greater than 50 nM.

On to `Cc1ccnc(COc2ccc(-c3ccccc3-c3ccncc3)cc2)c1` [Example 1947, 4-methyl-2-((2′-(pyridin-4-yl)biphenyl-4-yloxy)methyl)pyridine], for which the IC50 was greater than 50 nM.

Test system in the next series: not given
Test: not given
Conditions: not given
The compound `N#Cc1ccc(-c2ccc(OCc3ccc4ccccc4n3)cc2)c(-c2ccncc2)c1` [Example 1885, 2-(Pyridin-4-yl)-4′-(quinolin-2-ylmethoxy)biphenyl-4-carbonitrile] registered a melting point of 190 to 193 °C.
